Measurements reported in patent US9765068B2, “PRMT5 inhibitors and uses thereof” (Epizyme, Inc., priority 2012, dated 2017).

What follows are molecules tested against PRMT5/MEP50 (Homo sapiens (Human), UniProt O14744) (assay: PRMT5 Biochemical Assay (PRMT5/MEP50 enzyme assay on peptide substrate, 3H-SAM Flashplate)). Settings: PRMT5/MEP50 4 nM, 3H-SAM 75 nM, peptide 40 nM.
From the text: General Materials. S-adenosylmethionine (SAM), S-adenosylhomocysteine (SAH), bicine, KCl, Tween20, dimethylsulfoxide (DMSO), bovine skin gelatin (BSG), and Tris(2-carboxyethyl)phosphine hydrochloride solution (TCEP) were purchased from Sigma-Aldrich at the highest level of purity possible. ^3H-SAM was purchase from American Radiolabeled Chemicals with a specific activity of 80 Ci/mmol. 384-well streptavidin Flashplates were purchased from PerkinElmer.
Substrates. Peptide representative of human histone H4 residues 1-15 was synthesized with a C-terminal linker-affinity tag motif and a C-terminal amide cap by 21st Century Biochemicals. […] The sequence was Ac-[…][K-Biot]-amide (SEQ ID NO.:3).
Full-length human MEP50 (NM_024102) clone was amplified from a human testis cDNA library incorporating a 5′ sequence encoding a 6-histidine tag (MHHHHHH) (SEQ ID NO.:5) fused directly to Arg 2 of MEP50. The amplified genes were sublconed into pENTR/D/TEV (Life Technologies) and subsequently transferred by Gateway™ attL×attR recombination to pDEST8 baculvirus expression vector (Life Technologies).
Protein Expression. Recombinant baculovirus and Baculovirus-Infected Insect Cells (BIIC) were generated according to Bac-to-Bac kit instructions (Life Technologies) and Wasilko, 2006, respectively. Protein over-expression was accomplished by infecting exponentially growing Spodoptera frugiperda (SF9) cell culture at 1.2×10^6 cell/ml with a 5000 fold dilution of BIIC stock. Infections were carried out at 27° C. for 72 hours, harvested by centrifugation, and stored at −80° C. for purification.
Protein Purification. […] Flag-PRMT5/6His-MeP50 was eluted with 300 mM Imidazole in the same buffer. […] Reference: Wasilko, D. J. and S. E. Lee: “TIPS: titerless infected-cells preservation and scale-up” Bioprocess J., 5 (2006), pp. 29-32.
General Procedure for PRMT5/MEP50 Enzyme Assays on Peptide Substrates.
The assays were all performed in a buffer consisting of 20 mM Bicine (pH=7.6), 1 mM TCEP, 0.005% BSG, and 0.002% Tween20, prepared on the day of use. Compounds in 100% DMSO (1 ul) were spotted into a polypropylene 384-well V-bottom plates (Greiner) using a Platemate Plus outfitted with a 384-channel head (Thermo Scientific). DMSO (1 ul) was added to Columns 11, 12, 23, 24, rows A-H for the maximum signal control and 1 ul of SAH, a known product and inhibitor of PRMT5/MEP50, was added to columns 11, 12, 23, 24, rows I-P for the minimum signal control. A cocktail (40 ul) containing the PRMT5/MEP50 enzyme and the peptide was added by Multidrop Combi (Thermo-Fisher). The compounds were allowed to incubate with PRMT5/MEP50 for 30 min at 25 degrees Celsius, then a cocktail (10 ul) containing ^3H-SAM was added to initiate the reaction (final volume=51 ul). The final concentrations of the components were as follows: PRMT5/MEP50 was 4 nM, ^3H-SAM was 75 nM, peptide was 40 nM, SAH in the minimum signal control wells was 100 uM, and the DMSO concentration was 1%. The assays were stopped by the addition of non-radioactive SAM (10 ul) to a final concentration of 600 uM, which dilutes the ^3H-SAM to a level where its incorporation into the peptide substrate is no longer detectable. 50 ul of the reaction in the 384-well polypropylene plate was then transferred to a 384-well Flashplate and the biotinylated peptides were allowed to bind to the streptavidin surface for at least 1 hour before being washed three times with 0.1% Tween20 in a Biotek ELx405 plate washer. The plates were then read in a PerkinElmer TopCount plate reader to measure the quantity of ^3H-labeled peptide bound to the Flashplate surface, measured as disintegrations per minute (dpm) or alternatively, referred to as counts per minute (cpm).
[formula] Where dpm=disintegrations per minute, cmpd=signal in assay well, and min and max are the respective minimum and maximum signal controls.

Sequence of PRMT5/MEP50 (O14744 other isoform, or with tags, fused parts or gaps): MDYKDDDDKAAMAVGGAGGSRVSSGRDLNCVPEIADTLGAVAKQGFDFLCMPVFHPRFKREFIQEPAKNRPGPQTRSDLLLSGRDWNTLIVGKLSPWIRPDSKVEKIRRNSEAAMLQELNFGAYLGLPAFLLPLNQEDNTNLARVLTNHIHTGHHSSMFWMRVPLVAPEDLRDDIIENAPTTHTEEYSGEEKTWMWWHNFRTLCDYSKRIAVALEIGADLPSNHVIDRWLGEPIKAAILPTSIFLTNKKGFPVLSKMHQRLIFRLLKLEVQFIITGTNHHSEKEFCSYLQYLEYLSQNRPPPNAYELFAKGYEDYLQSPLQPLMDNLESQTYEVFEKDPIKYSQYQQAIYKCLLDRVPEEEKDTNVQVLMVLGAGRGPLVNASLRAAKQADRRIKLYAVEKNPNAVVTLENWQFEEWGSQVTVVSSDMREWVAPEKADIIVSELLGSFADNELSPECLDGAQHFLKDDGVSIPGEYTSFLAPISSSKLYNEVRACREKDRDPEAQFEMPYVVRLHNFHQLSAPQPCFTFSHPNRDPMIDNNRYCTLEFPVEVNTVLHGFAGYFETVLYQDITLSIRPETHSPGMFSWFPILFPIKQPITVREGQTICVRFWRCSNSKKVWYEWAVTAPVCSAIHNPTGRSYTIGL
Sequence of PRMT5/MEP50 (Q9BQA1 other isoform, or with tags, fused parts or gaps partner): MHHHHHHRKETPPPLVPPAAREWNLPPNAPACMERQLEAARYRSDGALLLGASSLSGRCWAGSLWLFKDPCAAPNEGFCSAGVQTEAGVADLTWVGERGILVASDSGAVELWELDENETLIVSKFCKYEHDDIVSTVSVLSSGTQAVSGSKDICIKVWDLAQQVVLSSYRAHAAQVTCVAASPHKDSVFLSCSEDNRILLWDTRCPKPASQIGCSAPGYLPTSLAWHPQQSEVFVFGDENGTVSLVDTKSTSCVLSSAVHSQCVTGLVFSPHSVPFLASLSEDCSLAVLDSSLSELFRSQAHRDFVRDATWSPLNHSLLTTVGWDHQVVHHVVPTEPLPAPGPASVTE

Row | SMILES | IC50 [nM]
1 | O=C(CC1CCCCC1)NC[C@H](O)CN1CCc2ccccc2C1 [Compound 56] | 1000 to 10000
2 | CNC(=O)c1ccccc1OCC(=O)NCC(O)CN1CCc2ccccc2C1 (stereo not drawn) [Compound 112] | 101 to 1000
3 | NC(=O)c1ccc(OCC(=O)NCC(O)CN2CCc3ccccc3C2)cc1 (stereo not drawn) [Compound 13] | 1000 to 10000
4 | O=C(COCc1cccnc1)NCC(O)CN1CCc2ccccc2C1 (stereo not drawn) [Compound 152, N-(3-(3,4-dihydroisoquinolin-2(1H)-yl)-2-hydroxypropyl)-2-(pyridin-3-ylmethoxy)acetamide] | 1000 to 10000
5 | O=C(COc1ccccc1F)NCC(O)CN1CCc2ccccc2C1 (stereo not drawn) [Compound 16] | 101 to 1000
6 | CN(CC(O)CN1CCc2ccccc2C1)C(=O)COc1ccccc1 (stereo not drawn) [Compound 5] | 10000 to 50000
7 | Cn1cc2c(OCC(=O)NCC(O)CN3CCc4ccccc4C3)cccc2n1 (stereo not drawn) [Compound 118] | 101 to 1000
8 | CC(=O)Nc1cccc(OCC(=O)NCC(O)CN2CCc3ccccc3C2)c1 (stereo not drawn) [Compound 31, 2-(3-acetamidophenoxy)-N-(3-(3,4-dihydroisoquinolin-2(1H)-yl)-2-hydroxypropyl)acetamide] | 1000 to 10000
9 | CC(=O)N1CCN(S(=O)(=O)c2ccccc2OCC(=O)NCC(O)CN2CCc3ccccc3C2)CC1 (stereo not drawn) [Compound 122] | 101 to 1000
10 | CN(C)C(=O)c1ccccc1OCC(=O)NCC(O)CN1CCc2ccccc2C1 (stereo not drawn) [Compound 113] | 101 to 1000
11 | CN(CC(O)CN1CCc2ccccc2C1)C(=O)CCc1ccccc1 (stereo not drawn) [Compound 3] | 1000 to 10000
12 | Cn1cnc2cc(OCC(=O)NCC(O)CN3CCc4ccccc4C3)ccc21 (stereo not drawn) [Compound 46, N-(3-(3,4-dihydroisoquinolin-2(1H)-yl)-2-hydroxypropyl)-2-((1-methyl-1H-benzo[d]imidazol-5-yl)oxy)acetamide] | 101 to 1000
13 | CN(C)c1cncc(OCC(=O)NCC(O)CN2CCc3ccccc3C2)c1 (stereo not drawn) [Compound 143] | 1000 to 10000
14 | O=C(COc1ccc(F)cc1)NCC(O)CN1CCc2ccccc2C1 (stereo not drawn) [Compound 10] | 1000 to 10000
15 | CN(C)c1ccc(OCC(=O)NCC(O)CN2CCc3ccccc3C2)cc1 (stereo not drawn) [Compound 35] | 101 to 1000
16 | CN(C)c1ncccc1OCC(=O)NCC(O)CN1CCc2ccccc2C1 (stereo not drawn) [Compound 127] | 101 to 1000
17 | O=C(Cc1ccncc1)NCC(O)CN1CCc2ccccc2C1 (stereo not drawn) [Compound 51] | 10000 to 50000
18 | O=C(COc1cccc2ncc(=O)[nH]c12)NCC(O)CN1CCc2ccccc2C1 (stereo not drawn) [Compound 129] | 101 to 1000
19 | Nc1ncccc1OCC(=O)NCC(O)CN1CCc2ccccc2C1 (stereo not drawn) [Compound 145] | 1000 to 10000
20 | O=C(COc1ccccc1N1CCOCC1)NC[C@@H](O)CN1CCc2ccccc2C1 [Compound 78] | 101 to 1000
21 | O=C(COc1ccccc1C1CCNC1)NCC(O)CN1CCc2ccccc2C1 (stereo not drawn) [Compound 116] | 1000 to 10000
22 | CN(c1cccc(OCC(=O)NCC(O)CN2CCc3ccccc3C2)c1)S(C)(=O)=O (stereo not drawn) [Compound 142] | 101 to 1000
23 | O=C(COC1CCCCC1)NCC(O)CN1CCc2ccccc2C1 (stereo not drawn) [Compound 24, 2-(cyclohexyloxy)-N-(3-(3,4-dihydroisoquinolin-2(1H)-yl)-2-hydroxypropyl)acetamide] | 101 to 1000
24 | CN1CCC(c2ccccc2OCC(=O)NCC(O)CN2CCc3ccccc3C2)C1 (stereo not drawn) [Compound 136] | 1000 to 10000
25 | CS(=O)(=O)N1CCN(c2ccccc2OCC(=O)NCC(O)CN2CCc3ccccc3C2)CC1 (stereo not drawn) [Compound 106] | 101 to 1000
26 | O=C(COc1cccc2[nH]c(=O)cnc12)NCC(O)CN1CCc2ccccc2C1 (stereo not drawn) [Compound 125] | 1000 to 10000
27 | COc1ccc2cccc(OCC(=O)NC[C@H](O)CN3CCc4ccccc4C3)c2n1 [Compound 97] | 101 to 1000

Row | SMILES | IC50 [nM]
28 | Cc1ccccc1OCC(=O)NCC(O)CN1CCc2ccccc2C1 (stereo not drawn) [Compound 15, N-(3-(3,4-dihydroisoquinolin-2(1H)-yl)-2-hydroxypropyl)-2-(o-tolyloxy)acetamide] | 101 to 1000
29 | CC(C)(C)OC(=O)Nc1ccccc1OCC(=O)NCC(O)CN1CCc2ccccc2C1 (stereo not drawn) [Compound 141] | 1000 to 10000
30 | Cc1ccc(OCC(=O)NCC(O)CN2CCc3ccccc3C2)cc1 (stereo not drawn) [Compound 9, N-(3-(3,4-dihydroisoquinolin-2(1H)-yl)-2-hydroxypropyl)-2-(p-tolyloxy)acetamide] | 101 to 1000
31 | C[C@H](Oc1cccc2cccnc12)C(=O)NC[C@@H](O)CN1CCc2ccccc2C1 [Compound 72] | 1000 to 10000
32 | CN1CCc2cccc(OCC(=O)NCC(O)CN3CCc4ccccc4C3)c2C1 (stereo not drawn) [Compound 120] | 101 to 1000
33 | O=C(CC1CCCCC1)NC[C@@H](O)CN1CCc2ccccc2C1 [Compound 58] | 10000 to 50000
34 | O=C(COc1ccccc1)NC[C@@H](O)CN1CCc2ccccc2C1 [Compound 33] | 1000 to 10000
35 | O=C(COc1ccccc1)NC[C@H](O)CN1CCc2ccccc2C1 [Compound 32] | 101 to 1000
36 | O=C(CCc1ccccc1)NCC(O)CN1CCc2ccccc2C1 (stereo not drawn) [Compound 2] | 1000 to 10000
37 | CN(C)CCOc1ccccc1OCC(=O)NC[C@@H](O)CN1CCc2ccccc2C1 [Compound 89] | 101 to 1000
38 | NC(=O)c1cccc(OCC(=O)NCC(O)CN2CCc3ccccc3C2)c1 (stereo not drawn) [Compound 34, 3-(2-((3-(3,4-dihydroisoquinolin-2(1H)-yl)-2-hydroxypropyl)amino)-2-oxoethoxy)benzamide] | 101 to 1000
39 | N#Cc1ccc(OCC(=O)NCC(O)CN2CCc3ccccc3C2)cc1 (stereo not drawn) [Compound 11] | 101 to 1000
40 | O=C(COc1cccc2cccnc12)NC[C@H](O)CN1CCc2ccccc2C1 [Compound 44, (S)—N-(3-(3,4-dihydroisoquinolin-2(1H)-yl)-2-hydroxypropyl)-2-(quinolin-8-yloxy)acetamide] | 101 to 1000
41 | O=C(COc1cccc2c1OCC(=O)N2)NCC(O)CN1CCc2ccccc2C1 (stereo not drawn) [Compound 124] | 1000 to 10000
42 | CC(Oc1ccccc1S(C)(=O)=O)C(=O)NCC(O)CN1CCc2ccccc2C1 (stereo not drawn) [Compound 114] | 101 to 1000
43 | CC(=O)Nc1ccccc1OCC(=O)NCC(O)CN1CCc2ccccc2C1 (stereo not drawn) [Compound 36] | 101 to 1000
44 | O=C(COc1cccc(NC2CCOCC2)n1)NCC(O)CN1CCc2ccccc2C1 (stereo not drawn) [Compound 121] | 1000 to 10000
45 | O=C(Cc1ccccc1)NC[C@H](O)CN1CCc2ccccc2C1 [Compound 55] | 101 to 1000
46 | CN1CCN(c2ccccc2OCC(=O)NC[C@@H](O)CN2CCc3ccccc3C2)CC1 [Compound 85] | 1000 to 10000
47 | COc1ccc(OCC(=O)NCC(O)CN2CCc3ccccc3C2)cc1 (stereo not drawn) [Compound 12, N-(3-(3,4-dihydroisoquinolin-2(1H)-yl)-2-hydroxypropyl)-2-(4-methoxyphenoxy)acetamide] | 101 to 1000
48 | NC(=O)c1ccccc1OCC(=O)NCC(O)CN1CCc2ccccc2C1 (stereo not drawn) [Compound 29] | 101 to 1000
49 | O=C(COc1ccccc1-c1c[nH]cn1)NCC(O)CN1CCc2ccccc2C1 (stereo not drawn) [Compound 115] | 10000 to 50000
50 | Cn1cnc2ccc(NCC(=O)NCC(O)CN3CCc4ccccc4C3)cc21 (stereo not drawn) [Compound 69] | 101 to 1000
51 | CC(=O)Nc1ccc(OCC(=O)NCC(O)CN2CCc3ccccc3C2)cc1 (stereo not drawn) [Compound 21, 2-(4-acetamidophenoxy)-N-(3-(3,4-dihydroisoquinolin-2(1H)-yl)-2-hydroxypropyl)acetamide] | 101 to 1000
52 | Cn1nccc1-c1cccc(CC(=O)NCC(O)CN2CCc3ccccc3C2)c1 (stereo not drawn) [Compound 54, N-(3-(3,4-dihydroisoquinolin-2(1H)-yl)-2-hydroxypropyl)-2-(3-(1-methyl-1H-pyrazol-5-yl)phenyl)acetamide] | 101 to 1000
53 | CN(C)c1ccc2cccc(OCC(=O)NC[C@H](O)CN3CCc4ccccc4C3)c2n1 [Compound 104] | 101 to 1000
54 | O=C(COC1CCOCC1)NCC(O)CN1CCc2ccccc2C1 (stereo not drawn) [Compound 41] | 1000 to 10000
